Source: the supplement of paper PMC4862054

How the values were obtained:
Test in all cases: drug sensitivity score (DSS), CellTiter-Glo (DSS (AUC-based score)); higher = stronger drug effect (viability inhibition or cytotoxicity); extreme values may be limits of the assay
Details in all cases: incubation time: 72 h
BT-549 = tested on: BT-549
Procedure, shortened: (§1)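 Breast cancer cells were seeded into 384-well plates containing compound at 5 concentrations in 10-fold steps over a compound-specific 10,000-fold range and incubated 72 h. After CellTox Green and CellTiter-Glo readings, each plate was normalised to 0.1 % DMSO and a positive kill control. The drug sensitivity score rests on the area under the fitted dose-response curve.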

CAL-51 = tested on: CAL-51
Procedure, shortened: as §1

CAL-85-1 = tested on: CAL-85-1
Procedure, shortened: as §1

DU-4475 = tested on: DU-4475
Procedure, shortened: as §1

HCC1143 = tested on: HCC1143
Procedure, shortened: as §1

HCC1599 = tested on: HCC1599
Procedure, shortened: as §1

HDQ-P1 = tested on: HDQ-P1
Procedure, shortened: as §1

Hs578T = tested on: Hs578T
Procedure, shortened: as §1

MDA-MB-436 = tested on: MDA-MB-436
Procedure, shortened: as §1

SK-BR-3 = tested on: SK-BR-3
Procedure, shortened: as §1

Row | SMILES | drug sensitivity score (BT-549) | drug sensitivity score (CAL-51) | drug sensitivity score (CAL-85-1) | drug sensitivity score (DU-4475) | drug sensitivity score (HCC1143) | drug sensitivity score (HCC1599) | drug sensitivity score (HDQ-P1) | drug sensitivity score (Hs578T) | drug sensitivity score (MDA-MB-436) | drug sensitivity score (SK-BR-3)
1 | C=CC[C@@H]1/C=C(\C)C[C@H](C)C[C@H](OC)[C@H]2O[C@@](O)(C(=O)C(=O)N3CCCC[C@H]3C(=O)O[C@H](/C(C)=C/[C@@H]3CC[C@@H](O)[C@H](OC)C3)[C@H](C)[C@@H](O)CC1=O)[C@H](C)C[C@@H]2OC [Tacrolimus] | 0 | 0 | 0 | 0 | 0 | 0 | 0 | 0 | 0 | 0
2 | C=CCNC1=C2C[C@@H](C)C[C@H](OC)[C@H](O)[C@@H](C)/C=C(\C)[C@H](OC(N)=O)[C@@H](OC)/C=C\C=C(/C)C(=O)NC(=CC1=O)C2=O [Tanespimycin] | 18.5 | 20.7 | 13.3 | 20.2 | 18 | 8.46 | 19 | 15.6 | 18.2 | 18.3
3 | CO[C@H]1C[C@@H]2CC[C@@H](C)[C@@](O)(O2)C(=O)C(=O)N2CCCC[C@H]2C(=O)O[C@H]([C@H](C)C[C@@H]2CC[C@@H](OC(=O)C(C)(CO)CO)[C@H](OC)C2)CC(=O)[C@H](C)/C=C(\C)[C@@H](O)[C@@H](OC)C(=O)[C@H](C)C[C@H](C)/C=C/C=C/C=C/1C [Temsirolimus] | 12.7 | 11.3 | 9.28 | 5.2 | 8.92 | 0 | 4.08 | 10.1 | 3.51 | 11
4 | O=C(c1ccc(C(=O)N2CCC(N3CCCC3)CC2)c(Nc2ccccc2)c1)N1CCC(N2CCCC2)CC1 [UNC1215] | 0 | 0 | 0 | 0 | 0 | 0 | 0 | 0 | 0 | 0
5 | C[C@]1(c2nc3c(C(N)=O)cccc3[nH]2)CCCN1 [Veliparib] | 0 | 3.97 | 0 | 0 | 0 | 0 | 0 | 0 | 0 | 0
6 | CC[C@]1(O)C[C@@H]2CN(CCc3c([nH]c4ccccc34)[C@@](C(=O)OC)(c3cc4c(cc3OC)N(C)[C@H]3[C@@](O)(C(=O)OC)[C@H](OC(C)=O)[C@]5(CC)C=CCN6CC[C@]43[C@@H]65)C2)C1 [Vinblastine] | 21.3 | 18.4 | 20.7 | 8.05 | 15.8 | 17.2 | 7.5 | 20.3 | 22.8 | 27.5
7 | CS(=O)(=O)c1ccc(C(=O)Nc2ccc(Cl)c(-c3ccccn3)c2)c(Cl)c1 [Vismodegib] | 0 | 0 | 0 | 0 | 0 | 0 | 0 | 0 | 0 | 0
